Data: the kinase profiling compilation of Christmann-Franck et al. (2016)

Key:
Assay in all cases: radiometric filter-binding kinase assay, Kinase HotSpot
Conditions in all cases: compound 0.5 µM; ATP 10 µM
ABL2 (human) = ABL2 (human) (UniProt P42684)
TLK2 (human) = TLK2 (human) (UniProt Q86UE8)
NTRK1 (human) = NTRK1 (human) (UniProt P04629)
GRK4 (human) = GRK4 (human) (UniProt P32298)
RPS6KA4 KD2 (human) = RPS6KA4 KD2 (human) (UniProt O75676)
BTK (human) = BTK (human) (UniProt Q06187)
PRKD1 (human) = PRKD1 (human) (UniProt Q15139)
OXSR1 (human) = OXSR1 (human) (UniProt O95747)
CDC42BPA (human) = CDC42BPA (human) (UniProt Q5VT25)
Sequence of CDC42BPA (human) (Q5VT25 whole entry, looked up): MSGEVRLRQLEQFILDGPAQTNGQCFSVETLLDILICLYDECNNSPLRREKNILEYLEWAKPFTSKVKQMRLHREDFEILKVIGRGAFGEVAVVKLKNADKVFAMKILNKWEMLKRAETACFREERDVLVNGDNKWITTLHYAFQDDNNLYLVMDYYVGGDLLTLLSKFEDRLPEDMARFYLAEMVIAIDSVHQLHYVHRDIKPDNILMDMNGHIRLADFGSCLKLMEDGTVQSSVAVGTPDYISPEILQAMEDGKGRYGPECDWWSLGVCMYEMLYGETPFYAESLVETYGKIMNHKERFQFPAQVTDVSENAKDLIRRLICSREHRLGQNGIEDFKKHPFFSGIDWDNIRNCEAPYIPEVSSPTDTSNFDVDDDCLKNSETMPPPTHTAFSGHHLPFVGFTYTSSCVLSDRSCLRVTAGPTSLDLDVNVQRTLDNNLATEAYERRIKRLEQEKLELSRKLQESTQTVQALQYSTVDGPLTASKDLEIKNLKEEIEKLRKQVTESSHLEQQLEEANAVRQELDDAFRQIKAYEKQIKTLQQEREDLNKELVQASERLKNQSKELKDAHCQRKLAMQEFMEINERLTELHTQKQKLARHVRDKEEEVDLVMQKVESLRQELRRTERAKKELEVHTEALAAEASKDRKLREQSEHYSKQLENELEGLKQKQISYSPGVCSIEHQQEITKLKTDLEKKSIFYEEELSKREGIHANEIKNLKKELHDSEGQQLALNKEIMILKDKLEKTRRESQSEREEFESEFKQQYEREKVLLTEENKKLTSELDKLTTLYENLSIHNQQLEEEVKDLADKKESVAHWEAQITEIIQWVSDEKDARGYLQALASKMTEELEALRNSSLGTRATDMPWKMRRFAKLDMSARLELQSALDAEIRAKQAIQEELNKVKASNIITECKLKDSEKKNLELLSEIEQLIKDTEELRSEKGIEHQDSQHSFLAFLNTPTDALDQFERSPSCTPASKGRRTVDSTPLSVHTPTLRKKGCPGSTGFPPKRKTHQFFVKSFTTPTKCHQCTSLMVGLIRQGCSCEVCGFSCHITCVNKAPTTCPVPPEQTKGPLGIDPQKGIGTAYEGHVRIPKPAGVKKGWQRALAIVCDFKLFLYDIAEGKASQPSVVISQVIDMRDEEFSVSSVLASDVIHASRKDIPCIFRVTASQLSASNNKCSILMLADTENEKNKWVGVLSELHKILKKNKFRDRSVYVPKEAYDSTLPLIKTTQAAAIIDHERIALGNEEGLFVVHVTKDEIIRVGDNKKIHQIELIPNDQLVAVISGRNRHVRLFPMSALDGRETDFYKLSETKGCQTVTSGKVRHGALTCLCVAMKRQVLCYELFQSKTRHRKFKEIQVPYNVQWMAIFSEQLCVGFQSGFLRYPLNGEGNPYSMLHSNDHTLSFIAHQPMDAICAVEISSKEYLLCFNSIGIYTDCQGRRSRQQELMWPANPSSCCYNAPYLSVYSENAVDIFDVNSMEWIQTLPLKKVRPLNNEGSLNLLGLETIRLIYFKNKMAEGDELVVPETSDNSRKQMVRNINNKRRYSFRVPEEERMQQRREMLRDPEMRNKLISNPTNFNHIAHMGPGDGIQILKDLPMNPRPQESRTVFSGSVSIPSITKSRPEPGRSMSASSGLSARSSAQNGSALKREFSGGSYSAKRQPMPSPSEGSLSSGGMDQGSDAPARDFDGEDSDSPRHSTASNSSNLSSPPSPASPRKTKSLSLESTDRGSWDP

RPS6KB2 (human) = RPS6KB2 (human) (UniProt Q9UBS0)
FGFR2 (human) = FGFR2 (human) (UniProt P21802)
FGR (human) = FGR (human) (UniProt P09769)
Sequence of FGR (human) (P09769 whole entry, looked up): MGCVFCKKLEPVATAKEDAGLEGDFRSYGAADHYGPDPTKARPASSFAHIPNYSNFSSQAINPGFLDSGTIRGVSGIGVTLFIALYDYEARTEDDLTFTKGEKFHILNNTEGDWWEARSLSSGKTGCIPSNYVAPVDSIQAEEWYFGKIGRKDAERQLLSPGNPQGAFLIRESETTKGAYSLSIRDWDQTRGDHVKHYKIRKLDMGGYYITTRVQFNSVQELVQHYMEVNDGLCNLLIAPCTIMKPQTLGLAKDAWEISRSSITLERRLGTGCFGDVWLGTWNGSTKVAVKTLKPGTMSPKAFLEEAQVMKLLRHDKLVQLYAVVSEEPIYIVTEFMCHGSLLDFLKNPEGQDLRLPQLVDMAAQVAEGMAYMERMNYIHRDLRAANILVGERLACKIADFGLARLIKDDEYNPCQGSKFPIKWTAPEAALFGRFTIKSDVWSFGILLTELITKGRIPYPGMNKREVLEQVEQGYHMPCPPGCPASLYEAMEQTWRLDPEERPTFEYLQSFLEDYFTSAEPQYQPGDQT

MYO3B (human) = MYO3B (human) (UniProt Q8WXR4)
DMPK (human) = DMPK (human) (UniProt Q09013)
JAK3 JH1 JH2 (human) = JAK3 JH1 JH2 (human) (UniProt P52333)
SIK2 (human) = SIK2 (human) (UniProt Q9H0K1)
PLK2 (human) = PLK2 (human) (UniProt Q9NYY3)
PRKCD (human) = PRKCD (human) (UniProt Q05655)
NEK2 (human) = NEK2 (human) (UniProt P51955)
AKT1 (human) = AKT1 (human) (UniProt P31749)
TAOK2 (human) = TAOK2 (human) (UniProt Q9UL54)
WEE1 (human) = WEE1 (human) (UniProt P30291)
Sequence of WEE1 (human) (P30291 whole entry, looked up): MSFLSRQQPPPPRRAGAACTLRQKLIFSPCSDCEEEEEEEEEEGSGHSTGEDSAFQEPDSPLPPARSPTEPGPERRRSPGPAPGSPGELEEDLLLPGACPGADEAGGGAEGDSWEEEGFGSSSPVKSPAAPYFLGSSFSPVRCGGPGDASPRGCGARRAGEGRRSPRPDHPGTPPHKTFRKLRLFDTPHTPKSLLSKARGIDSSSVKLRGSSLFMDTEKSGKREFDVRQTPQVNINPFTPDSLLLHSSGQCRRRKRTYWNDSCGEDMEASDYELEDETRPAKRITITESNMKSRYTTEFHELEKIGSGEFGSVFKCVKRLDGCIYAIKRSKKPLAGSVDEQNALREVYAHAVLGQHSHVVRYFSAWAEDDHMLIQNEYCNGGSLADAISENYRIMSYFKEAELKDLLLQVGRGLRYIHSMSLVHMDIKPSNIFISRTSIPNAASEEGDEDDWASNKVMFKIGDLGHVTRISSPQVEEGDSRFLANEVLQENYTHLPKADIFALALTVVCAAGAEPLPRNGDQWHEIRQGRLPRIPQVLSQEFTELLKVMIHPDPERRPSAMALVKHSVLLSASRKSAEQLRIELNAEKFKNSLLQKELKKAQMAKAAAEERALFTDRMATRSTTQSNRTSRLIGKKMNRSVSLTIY

MAPK10 (human) = MAPK10 (human) (UniProt P53779)
EPHA8 (human) = EPHA8 (human) (UniProt P29322)
RPS6KA1 KD1 KD2 (human) = RPS6KA1 KD1 KD2 (human) (UniProt Q15418)
EPHB2 (human) = EPHB2 (human) (UniProt P29323)
[1] = target: JAK1 JH1 catalytic (human) (UniProt P23458)
AURKA (human) = AURKA (human) (UniProt O14965)
CDC42BPB (human) = CDC42BPB (human) (UniProt Q9Y5S2)
CAMK2A (human) = CAMK2A (human) (UniProt Q9UQM7)
Sequence of CAMK2A (human) (Q9UQM7 whole entry, looked up): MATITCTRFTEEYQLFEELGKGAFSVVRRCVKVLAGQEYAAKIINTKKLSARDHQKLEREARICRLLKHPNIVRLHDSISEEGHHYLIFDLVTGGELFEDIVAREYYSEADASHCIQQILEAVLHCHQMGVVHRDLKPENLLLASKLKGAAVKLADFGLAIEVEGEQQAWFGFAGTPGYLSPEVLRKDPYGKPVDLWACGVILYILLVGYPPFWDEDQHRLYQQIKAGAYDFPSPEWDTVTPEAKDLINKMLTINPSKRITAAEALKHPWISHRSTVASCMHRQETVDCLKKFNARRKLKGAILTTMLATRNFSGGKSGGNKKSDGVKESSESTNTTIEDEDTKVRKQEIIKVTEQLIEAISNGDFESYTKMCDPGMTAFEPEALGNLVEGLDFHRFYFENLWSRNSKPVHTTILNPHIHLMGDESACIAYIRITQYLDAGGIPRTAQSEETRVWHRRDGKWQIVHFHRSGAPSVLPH

FGFR1 (human) = FGFR1 (human) (UniProt P11362)
MAP2K1 (human) = MAP2K1 (human) (UniProt Q02750)
IRAK1 (human) = IRAK1 (human) (UniProt P51617)
TNK2 (human) = TNK2 (human) (UniProt Q07912)
SRPK3 (human) = SRPK3 (human) (UniProt Q9UPE1)
DYRK1B (human) = DYRK1B (human) (UniProt Q9Y463)
ALK (human) = ALK (human) (UniProt Q9UM73)
GSG2 (human) = GSG2 (human) (UniProt Q8TF76)
PAK7 (human) = PAK7 (human) (UniProt Q9P286)
CDK4 CCND1 (human) = CDK4 CCND1 (human) (UniProt P24385+P11802)
MAPK9 (human) = MAPK9 (human) (UniProt P45984)
CDK5 CDK5R1 p35 (human) = CDK5 CDK5R1 p35 (human) (UniProt Q00535+Q15078)

Sequence of NTRK1 (human) (P04629 whole entry, looked up): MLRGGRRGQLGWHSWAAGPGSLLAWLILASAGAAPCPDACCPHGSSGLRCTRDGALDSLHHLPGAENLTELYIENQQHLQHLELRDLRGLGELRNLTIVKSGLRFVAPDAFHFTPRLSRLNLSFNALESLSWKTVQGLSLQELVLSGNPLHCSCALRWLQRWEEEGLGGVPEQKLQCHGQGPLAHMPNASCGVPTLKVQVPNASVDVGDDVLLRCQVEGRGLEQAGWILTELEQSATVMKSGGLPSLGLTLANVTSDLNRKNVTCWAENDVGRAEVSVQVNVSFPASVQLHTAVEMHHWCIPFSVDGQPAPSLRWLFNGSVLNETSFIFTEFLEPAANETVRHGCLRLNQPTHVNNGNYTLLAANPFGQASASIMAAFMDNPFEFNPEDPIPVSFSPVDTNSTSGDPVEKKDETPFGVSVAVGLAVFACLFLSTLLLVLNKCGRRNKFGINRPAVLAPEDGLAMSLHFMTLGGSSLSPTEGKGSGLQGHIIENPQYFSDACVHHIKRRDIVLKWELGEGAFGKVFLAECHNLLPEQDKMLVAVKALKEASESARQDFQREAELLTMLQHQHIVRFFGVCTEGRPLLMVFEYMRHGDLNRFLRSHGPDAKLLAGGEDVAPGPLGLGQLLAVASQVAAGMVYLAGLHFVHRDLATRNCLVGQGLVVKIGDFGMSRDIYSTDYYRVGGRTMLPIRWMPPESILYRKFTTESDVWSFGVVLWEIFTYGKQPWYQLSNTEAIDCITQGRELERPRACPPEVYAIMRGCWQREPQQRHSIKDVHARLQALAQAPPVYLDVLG
Sequence of RPS6KA4 KD2 (human) (O75676 whole entry, looked up): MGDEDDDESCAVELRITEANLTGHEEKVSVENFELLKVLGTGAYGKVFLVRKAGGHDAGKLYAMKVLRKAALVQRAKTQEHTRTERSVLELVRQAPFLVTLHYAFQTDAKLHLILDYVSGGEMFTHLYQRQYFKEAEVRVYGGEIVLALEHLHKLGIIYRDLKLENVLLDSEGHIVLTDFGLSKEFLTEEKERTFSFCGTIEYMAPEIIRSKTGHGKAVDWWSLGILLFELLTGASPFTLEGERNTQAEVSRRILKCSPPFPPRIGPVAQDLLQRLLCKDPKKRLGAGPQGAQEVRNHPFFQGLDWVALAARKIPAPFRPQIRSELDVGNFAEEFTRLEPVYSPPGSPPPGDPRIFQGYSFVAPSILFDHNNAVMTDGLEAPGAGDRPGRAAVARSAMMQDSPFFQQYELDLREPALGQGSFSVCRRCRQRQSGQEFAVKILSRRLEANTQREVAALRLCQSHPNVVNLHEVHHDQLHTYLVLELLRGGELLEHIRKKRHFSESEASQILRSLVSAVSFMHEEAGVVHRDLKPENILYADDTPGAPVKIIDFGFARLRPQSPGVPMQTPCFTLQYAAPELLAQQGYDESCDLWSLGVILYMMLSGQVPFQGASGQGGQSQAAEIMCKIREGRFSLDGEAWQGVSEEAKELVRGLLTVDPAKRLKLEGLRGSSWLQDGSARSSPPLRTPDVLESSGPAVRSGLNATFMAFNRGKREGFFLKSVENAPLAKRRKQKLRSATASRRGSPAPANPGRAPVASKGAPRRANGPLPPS

N#CC(C#N)=C(N)/C(C#N)=C/c1ccc(O)cc1 was tested, and the residual activity (ABL2 (human)) was 94.9%, the residual activity (TLK2 (human)) was 89.4% and the residual activity (NTRK1 (human)) was 102%. For the same molecule, the residual activity (GRK4 (human)) was 99.6%, the residual activity (RPS6KA4 KD2 (human)) was 99.7% and the residual activity (BTK (human)) was 99.7%. The residual activity (PRKD1 (human)) was 101%, the residual activity (OXSR1 (human)) was 72.2% and the residual activity (CDC42BPA (human)) was 96.2%. For the same molecule, the residual activity (RPS6KB2 (human)) was 96.8%, the residual activity (FGFR2 (human)) was 102% and the residual activity (FGR (human)) was 98.7%. The residual activity (MYO3B (human)) was 88.1%, the residual activity (DMPK (human)) was 101% and the residual activity (JAK3 JH1 JH2 (human)) was 102%. The residual activity (SIK2 (human)) was 87.7%, the residual activity (PLK2 (human)) was 99.9% and the residual activity (PRKCD (human)) was 93.7%. The residual activity (NEK2 (human)) was 102%, the residual activity (AKT1 (human)) was 99.2% and the residual activity (TAOK2 (human)) was 97.3%. The residual activity (WEE1 (human)) was 93.7%, the residual activity (MAPK10 (human)) was 98.8% and the residual activity (EPHA8 (human)) was 102%. For the same molecule, the residual activity (RPS6KA1 KD1 KD2 (human)) was 93.8%, the residual activity (EPHB2 (human)) was 97.1% and the residual activity [1] was 99.4%. For the same molecule, the residual activity (AURKA (human)) was 89.6%, the residual activity (CDC42BPB (human)) was 109% and the residual activity (CAMK2A (human)) was 103%. The residual activity (FGFR1 (human)) was 95.3%, the residual activity (MAP2K1 (human)) was 93.7% and the residual activity (IRAK1 (human)) was 123%. For the same molecule, the residual activity (TNK2 (human)) was 98.1%, the residual activity (SRPK3 (human)) was 96.4% and the residual activity (DYRK1B (human)) was 101%. It also gave a residual activity (ALK (human)) of 109%, a residual activity (GSG2 (human)) of 90.1% and a residual activity (PAK7 (human)) of 94.5%. For the same molecule, the residual activity (CDK4 CCND1 (human)) was 100%, the residual activity (MAPK9 (human)) was 105% and the residual activity (CDK5 CDK5R1 p35 (human)) was 91.9%.
In the case of CC(C)N(CCC(=O)c1ccc2ccccc2c1)Cc1ccccc1, the residual activity (ABL2 (human)) is reported as 100%, the residual activity (TLK2 (human)) is reported as 104% and the residual activity (NTRK1 (human)) is reported as 94.8%. For the same molecule, the residual activity (GRK4 (human)) was 94.9%, the residual activity (RPS6KA4 KD2 (human)) was 109% and the residual activity (BTK (human)) was 87.5%. The residual activity (PRKD1 (human)) was 98%, the residual activity (OXSR1 (human)) was 106% and the residual activity (CDC42BPA (human)) was 99.4%. For the same molecule, the residual activity (RPS6KB2 (human)) was 94.3%, the residual activity (FGFR2 (human)) was 107% and the residual activity (FGR (human)) was 94.2%. The residual activity (MYO3B (human)) was 93.5%, the residual activity (DMPK (human)) was 108% and the residual activity (JAK3 JH1 JH2 (human)) was 80.9%. For the same molecule, the residual activity (SIK2 (human)) was 103%, the residual activity (PLK2 (human)) was 97% and the residual activity (PRKCD (human)) was 94%. It also gave a residual activity (NEK2 (human)) of 86.9%, a residual activity (AKT1 (human)) of 100% and a residual activity (TAOK2 (human)) of 96.1%. The residual activity (WEE1 (human)) was 92.1%, the residual activity (MAPK10 (human)) was 91.1% and the residual activity (EPHA8 (human)) was 95.9%. The residual activity (RPS6KA1 KD1 KD2 (human)) was 97.6%, the residual activity (EPHB2 (human)) was 102% and the residual activity [1] was 112%. The residual activity (AURKA (human)) was 104%, the residual activity (CDC42BPB (human)) was 95% and the residual activity (CAMK2A (human)) was 106%. For the same molecule, the residual activity (FGFR1 (human)) was 99.5%, the residual activity (MAP2K1 (human)) was 82.5% and the residual activity (IRAK1 (human)) was 102%. The residual activity (TNK2 (human)) was 92.4%, the residual activity (SRPK3 (human)) was 96.5% and the residual activity (DYRK1B (human)) was 101%. It also gave a residual activity (ALK (human)) of 88.9%, a residual activity (GSG2 (human)) of 95.6% and a residual activity (PAK7 (human)) of 98.5%. The residual activity (CDK4 CCND1 (human)) was 103%, the residual activity (MAPK9 (human)) was 100% and the residual activity (CDK5 CDK5R1 p35 (human)) was 103%.
